These results are taken from patent US9381196B2, “Compounds, pharmaceutical compositions and methods of use of hydroxamic acid derivatives” (THE TRANSLATIONAL GENOMICS RESEARCH INSTITUTE, priority 2008, dated 2016).

The term IC50 denotes the concentration that inhibits the measured activity by half.

Where two headings read alike, the source gives them in different places.

The subject of one assay is mdamb231 cells. As to the kind of experiment: CellTiter-Blue cell viability assay, mdamb231 cell line. The format is cell-based. To be noted: cell growth inhibition.
The next assay deals with Skov-3 cells. As to the kind of experiment: CellTiter-Blue cell viability assay, SKOV3 cell line. The format is cell-based. To be noted: cell growth inhibition. An excerpt: Cell viability in the presence of varying concentrations of the above listed aspects of the disclosed compound at different time points was used to assess cytotoxicity and the effect of the disclosed compound on cell proliferation.
In general terms: Resazurin is reduced to fluorescent resorufin, in cell work by metabolically active cells.

In another assay the test system is PANC-1 cell line. Particulars: 72 hours treatment. How it is done:
(§1) Cell viability was measured by the CellTiter-Blue® cell viability assay Promega (Madison, Wis.). This procedure measures the conversion of the indicator dye (resazurin) to resorufin, an indicator of cell viability. Following treatment, growth media was removed and cells were incubated with 20 μl of CellTiter-Blue® Reagent and growth media for 1-4 hours at 37° C. Fluorescence values were measured at 535/590 nm using a Beckman-Coulter DTX-880 microplate reader.
(§2) Cells were grown to 70% confluency, trypsinized, counted, and seeded in 96 well flat-bottom plates at a final concentration of 2.5×10^3-5×10^3 cells/well (Day 0). Cells were allowed to incubate in growth media for 24 hours to allow for maximum adhesion. Treatment with the test agents or standard agents began on Day 1 and continued for 72 hours. At the 72 hour timepoint, treatment including media was removed. Viable cell numbers are quantified by the CellTiter-Blue® cell viability assay as described above. Experiments were repeated at least twice with the same concentrations to determine growth inhibitory activity.
(§3) Single agent and combination studies, data from each experiment was collected and expressed as % Cell Growth using the following calculation: % Cell Growth=(ftest/fvehicle)×100
(§4) Where ftest is the fluorescence of the tested sample, and fvehicle is the fluorescence of the vehicle in which the drug is dissolved. Dose response graphs and IC50 values were generated using Prism 4 software (GraphPad) using the following equation: […]
(§5) Where X is the logarithm of concentration and Y is the response.

In the next assay the test system is H23 cell line. To be noted: 72 hours treatment. How it is done:
as §1, §2, §3, §4, §5

A further assay concerns A2780 cell line. Particulars: 72 hours treatment. Here is the method:
as §1, §2, §3, §4, §5

A further assay deals with H295R cell line. To be noted: 72 hours treatment. Here is the method:
as §1, §2, §3, §4, §5

The next assay deals with MV522 cell line. To be noted: 72 hours treatment. How it is done:
as §1, §2, §3, §4, §5

In a further assay the test system is VCAP cell line. Particulars: 72 hours treatment. How it is done:
as §1, §2, §3, §4, §5

For another assay, the system named is MiaPaca cells. The experiment in a line: CellTiter-Blue cell viability assay, MiaPaCa cell line. The format is cell-based, human. To be noted: cell growth inhibition.
Assay [1] has as its system MIA PaCa-2 human pancreas cells xenograft. Particulars: MIA PaCa-2 xenograft in nude mice. How it is done:
In vivo efficacy of the disclosed compound was tested through a human pancreas tumor xenograft model. Female Ncr nude mice were inoculated with 1×10^7 MIA PaCa-2 human pancreas cells suspended in a mixture of 50% Matrigel and 50% tissue culture media in a total volume of […] When the tumors reached a mean weight of 157 mg, the mice were separated into four groups of 7-8 mice per group and treated. One group was treated with vehicle only. A second group was treated with Compound ID #15 at 50 mg/kg. A third group was treated with Compound ID #15 at 100 mg/kg and a fourth group was treated with Gemcitabine at 80 mg/kg. Vehicle and Compound ID #15 were administered by mouth while Gemcitabine was administered via an intraperitoneal injection. Body weights and tumor size data were collected twice weekly. Tumor width and length were measured in millimeters and converted to tumor weight (in milligrams) using the formula (width^2×Length/2)=tumor weight (mg.)

The mark [2] stands for this setting: Homo sapiens, MDA-MB-231, 72 hours treatment.
[3] abbreviates: Homo sapiens, SK-OV-3, 72 hours treatment.
Setting [4] is: Homo sapiens, MIA PaCa-2, 72 hours treatment.

Source text for MiaPaca cells: (§6) Where X is the logarithm of concentration and Y is the response. Y starts at the Bottom and goes to Top with a sigmoid shape.
Source text for mdamb231 cells: as §6

As for `O=C(CCCCCCc1nc2cc(-c3cccc(F)c3)ccc2[nH]1)NO` [Compound ID 30, 7-(5-(3-fluorophenyl)-1H-benzo[d]imidazol-2-yl)-N-hydroxyheptanamide], the IC50 with mdamb231 cells (setting [2]) is 330 nM; in the assay on Skov-3 cells (setting [3]), 1500 nM.
Take `O=C(CCCCCCc1nc2cc(-c3ccc(F)cc3)ccc2[nH]1)NO` [Compound ID 29, 7-(5-(4-fluorophenyl)-1H-benzo[d]imidazol-2-yl)-N-hydroxyheptanamide]: the IC50 in the assay with mdamb231 cells (setting [2]) is 210 nM; in the assay with Skov-3 cells (setting [3]) it was 1200 nM.
The compound `Cn1c(CCCCCCC(=O)NO)nc2ccccc21` [Compound ID 19, N-hydroxy-7-(1-methyl-1H-benzo[d]imidazol-2-yl) heptanamide] had an IC50 with Skov-3 cells (72 hours treatment) of 3000 nM.
`O=C(CCCCCCc1nc2cc(F)ccc2[nH]1)NO` [Compound ID 21, 7-(5-fluoro-1H-benzo[d]imidazol-2-yl)-N-hydroxyheptanamide]: in the assay on Skov-3 cells (setting [3]), the IC50 stood at 1900 nM.
On to “7-(5-bromo-1H-benzimidazol-2-yl)-N-hydroxy heptanamide [Compound ID 15]”, for which the IC50 amounted to 890 nM with mdamb231 cells (72 hours treatment); 270 nM in the assay on Skov-3 cells (72 hours treatment); 130 nM with PANC-1 cell line; 560 nM in the assay on H23 cell line; 1900 nM with A2780 cell line; 180 nM in the assay on H295R cell line. Besides, the IC50 in the assay on MV522 cell line came to 2200 nM; in the assay on VCAP cell line, 2400 nM; in the assay with MiaPaca cells (72 hours treatment) it was 820 nM. Also, the “slowing growth of the xenografts” value is “no more effective than the vehicle control” in [1] (50 mg/kg by mouth) and “about as effective as gemcitabine” in assay [1] (100 mg/kg by mouth, comparator gemcitabine 80 mg/kg intraperitoneal).
For the compound `COc1ccc(-c2ccc3[nH]c(CCCCCCC(=O)NO)nc3c2)cc1` [Compound ID 33, N-hydroxy-7-(5-(4-methoxyphenyl)-1H-benzo[d]imidazol-2-yl)heptanamide], half-maximal inhibition in the assay with Skov-3 cells (setting [3]) (IC50) required 3200 nM.
As for `O=C(CCCCCCc1nc2cc(-c3ccccc3)ccc2[nH]1)NO` [Compound ID 18, N-hydroxy-7-(5-phenyl-1H-benzo[d]imidazol-2-yl)heptanamide], the IC50 is 98 nM in the assay with Skov-3 cells (setting [3]) and 400 nM with MiaPaca cells (setting [4]).
In the same order, the values of `O=C(CCCCCCc1nc2ccncc2[nH]1)NO` [Compound ID 23, N-hydroxy-7-(3H-imidazo[4,5-c]pyridin-2-yl)heptanamide] are more than 10000 nM and more than 10000 nM.
Consider `COc1ccc2[nH]c(CCCCCCC(=O)NO)nc2c1` [Compound ID 17, N-hydroxy-7-(5-methoxy-1H-benzo[d]imidazol-2-yl)heptanamide], for which the IC50 in the assay with Skov-3 cells (setting [3]) was more than 10000 nM.
For `O=C(CCCCCCc1nc2cc(-c3cncnc3)ccc2[nH]1)NO` [Compound ID 28, N-hydroxy-7-(5-(pyrimidin-5-yl)-1H-benzo[d]imidazol-2-yl)heptanamide], the IC50 in the assay on mdamb231 cells (setting [2]) turned out to be 540 nM; with Skov-3 cells (setting [3]) it was 2600 nM.
In turn, `CN(C)c1ccc2[nH]c(CCCCCCC(=O)NO)nc2c1` [Compound ID 20, 7-(5-(dimethylamino)-1H-benzo[d]imidazol-2-yl)-N-hydroxyheptanamide] showed an IC50 in the assay on Skov-3 cells (setting [3]) of 1200 nM.
`CN(C)c1ccc(-c2ccc3[nH]c(CCCCCCC(=O)NO)nc3c2)cc1` [Compound ID 31, 7-(5-(4-(dimethylamino)phenyl)-1H-benzo[d]imidazol-2-yl)-N-hydroxyheptanamide]: in the assay with Skov-3 cells (setting [3]), the IC50 was determined as 6600 nM.
For `O=C(CCCCCCc1nc2ccccc2n1C1CC1)NO` [Compound ID 24, 7-(1-cyclopropyl-1H-benzo[d]imidazol-2-yl)-N-hydroxyheptanamide], the figures for the IC50 in the assay on Skov-3 cells (setting [3]) and in the assay with MiaPaca cells (setting [4]) were 9500 nM and 4000 nM, respectively.
In the same order, the values of `O=C(CCCCCCc1nc2ccccc2n1-c1ccccc1)NO` [Compound ID 27, N-hydroxy-7-(1-phenyl-1H-benzo[d]imidazol-2-yl)heptanamide] are more than 10000 nM and more than 10000 nM.
For the compound `O=C(CCCCCCc1nc2cc(Cl)ccc2[nH]1)NO` [Compound ID 22, 7-(5-chloro-1H-benzo[d]imidazol-2-yl)-N-hydroxyheptanamide], the IC50 in the assay with Skov-3 cells (setting [3]) came to 320 nM.
As to `O=C(CCCCCCc1nc2cc(-c3ccccc3F)ccc2[nH]1)NO` [Compound ID 32, 7-(5-(2-fluorophenyl)-1H-benzo[d]imidazol-2-yl)-N-hydroxyheptanamide], the IC50 in the assay with Skov-3 cells (setting [3]) amounted to 7400 nM.
With `O=C(CCCCCCc1nc2ccccc2n1C1CCCC1)NO` [Compound ID 25, 7-(1-cyclopentyl-1H-benzo[d]imidazol-2-yl)-N-hydroxyheptanamide], the IC50 in the assay on Skov-3 cells (setting [3]) stood at 4800 nM; with MiaPaca cells (setting [4]), 2300 nM.
In the case of `O=C(CCCCCc1nc2ccccc2[nH]1)NO` [Compound ID 16, 6-(1H-benzo[d]imidazol-2-yl)-N-hydroxyhexanamide], the IC50 in the assay with Skov-3 cells (setting [3]) was 11000 nM.
Consider `O=C(CCCCCCc1nc2ccccc2[nH]1)NO` [Compound ID 14, 7-(1H-benzo[d]imidazol-2-yl)-N-hydroxyheptanamide], for which the IC50 with Skov-3 cells (setting [3]) came to 2700 nM; with MiaPaca cells (setting [4]), 1900 nM.
`O=C(CCCCCCc1nc2c(Cl)cccc2[nH]1)NO` [Compound ID 26, 7-(4-chloro-1H-benzo[d]imidazol-2-yl)-N-hydroxyheptanamide]: the IC50 in the assay with Skov-3 cells (setting [3]) amounted to 10200 nM; in the assay on MiaPaca cells (setting [4]), 8500 nM.
